Experimental data reported in patent US10981858B2, “Dendrimer and formulations thereof” (Priostar Pty Ltd, priority 2015, dated 2021).
Entries after “also recorded” stand apart in the source; their conditions may differ.

Experiments:
Type in all cases: physicochemical
[1] = 2,4-D/dendrimer formulation stability study (crystallisation at 0° C.); details: for Crystallisation After 7 Days at 0° C. With Seeding: 2,4-D Amine 625 g/l seeded with 2,4-D Amine salt; for Crystallisation After 7 Days at 0° C.: without seeding
Protocol: 20 ml of 2,4-D Amine(2,4-D 625 g/l market sample, Rygel, Adama Australia) was transferred to 25 ml clear vials and dendrimer added (with or without 30% Dithethylene Glycol). Caps were tightened to ensure no moisture entered the vials. Formulations were placed in a freezer at 0° C. […] In a related experiment, formulations were prepared with seeding with 2,4-D Amine salt (Shanghai Biochemical Sci. Ltd., purity 98 in order to hasten rate of crystallisation. The results are provided in Table 2.

[2] = Solubilization of water insoluble surfactant Ethoxylated Lauryl alcohol-3 M in LA-9 solution; details: for Quantity LA-3 added to LA-9 solution: 50 g, until hazy
Protocol: 5% w/w aqueous solution of Ethoxylated Lauryl alcohol-9 mole (water soluble surfactant) was prepared in Deionized water (2.5 g in 47.5 ml). Dendrimer compounds 1 and 4 were diluted 70:30 w/w in Diethylene glycol. The 5% Ethoxylated Lauryl alcohol-9 M (LA-9) solution was combined with dendrimer DEG solution at 90:10, 80:20 and 70:30 w/w (total weight 50 g).
Ethoxylated lauryl alcohol-3 mole (water insoluble surfactant) was added dropwise, while stirring, to the 50 g LA-9 solution (with or without dendrimer), until it became hazy. The weight of Ethoxylated lauryl alcohol-3 M added was recorded.

[3] = Solubilization of Methylated seed oil (MSO) in aqueous LA-9 solution; details: for Quantity MSO added to 10% LA-9 solution: 50 g, until hazy
Protocol: 10% aqueous solution of Ethoxylated Lauryl alcohol-9 mole (water soluble surfactant) was prepared in Deionized water (5 g in 45 ml). Dendrimer compounds 1 and 4 were prepared 70:30 w/w in Diethylene glycol (DEG). The 10% Ethoxylated Lauryl alcohol-9 M (LA-9) solution was combined with dendrimer DEG solution at 80:20 and 60:40 w/w (total weight of 50 g).
Methylated seed oil (MSO) (STEPOSOL-ROE-W, canola oil methyl ester, Stepan) was added dropwise under stirring to the 10% LA-9 solution (with or without dendimers), until the solution became hazy. Weight of MSO added was recorded.

Cloud point studies = details: 1 gm. dendrimer solution (70:30 w/w dendrimer:Diethylene Glycol) in 99 gm. of 10% NaOH solution
Protocol: 1 gm. of dendrimer solution (70:30 w/w dendrimer [Compound 1 or Compound 4]:Diethylene Glycol) was dissolved in 99 gm. of 10% NaOH solution in Deionized water and heated until hazy. Temperature of the solution was measured using calibrated thermometer.

[4] = Water value of dendrimers with solvent (Solvesso 200); details: 50 g aqueous solution, 7% dendrimer and 3% DEG; until hazy
Protocol: 50 g Aqueous solution of Dendrimer were prepared containing 7% dendrimer and 3% Diethylene glycol (DEG) by weight. Solvesso 200 (C10-13 aromatic hydrocarbon solvent) was added dropwise under stirring until the solution became hazy. Weight of Solvesso added was recorded.

[5] = Dynamic viscosity of aqueous dendrimer solution (Brookfield); details: aqueous solution 7% dendrimer and 3% DEG, ambient temperature, spindle no. 63 at 50 rpm
Protocol: 50 g aqueous solution of dendrimer (7% dendrimer and 3% DEG) was prepared in deionized water in a beaker, and subjected to dynamic viscosity measurement using Brookfield viscometer at ambient temperature. Viscosity studies were conducted using spindle no. 63 at 50 rpm. It was observed that viscosity of Compound-1 solution was 1.8 cps and Compound-4 solution was 0.6 cps.

[6] = Tebuconazole 600 SC hard water testing: suspensibility, column thinning, sedimentation; details: 2 ml Tebuconazole 600 SC, dendrimer 0.7%, in 98 ml 342 ppm hard water, 30° C., 24 hours
Protocol: (§1) Formulations were prepared by mixing water, surfactant, dispersing agent, wetting agent and antifoam together then gradually adding active. High shear mix for 20-30 minutes to disperse formulation ingredients in water before adding the active and mixing until homogeneous. The mixture was milled on a Dyno bead mill (1 m/s) with 0.4-0.6 mm beads at max. 40° C. until particle size was <4 um. Dendrimer compound (in DEG) was added and stirred for 20 minutes. Thickener and antimicrobial was then added and stirred for 20 minutes. Formulations were deaerated by sonication.
98 ml of 342 ppm hard water (prepared as per CIPAC method MT18) was heated to 30° C. before adding 2 ml. of Tebuconazole 600 SC formulation. Temperature was maintained at 30° C. for 24 hours and formulation characteristics were studied for suspension stability, wetting, column thinning/separation and sedimentation.

[7] = Tebuconazole 600 SC wetting study in hard water; details: one drop Tebuconazole 600 SC, dendrimer 0.7%, in 342 ppm hard water at 30° C.
Protocol: as §1
Wetting studies were conducted by placing one drop of Tebuconazole 600 SC formulation in 342 ppm hard water at 30° C. and recording the time when all the formulation particles were wet and dispersed in water.

[8] = Tebuconazole 600 SC formulation viscosity (Table 8); details: dendrimer 0.7%
Protocol: as §1

[9] = Additional tebuconazole formulations: suspension stability and viscosity; details: additional tebuconazole formulation, 0.8% additive
From the text: Additional formulations were developed, and formulation characteristics were studied for suspension stability, and viscosity.

[10] = Imidacloprid 700SC formulation viscosity and stability; details: Imidacloprid 700 g/L formulation, dendrimer 20 g/L
Protocol: Imidacloprid formulations were prepared by using high shear mixing to disperse formulation ingredients in 75% of the required water before adding the active and mixing until homogeneous. The mixture was milled on a bead mill (4 m/s) at 30-35° C. for 1 complete pass. Thickener, glycerine and residual water were then added under high shear mixing. Formulations were tested for viscosity (using a Brookfield LV viscometer) low temperature stability (0 C for 7 days) and RT stability. Many other dendrimers containing formulations prepared either solidified on milling or pre-milling Compound 4 reduced viscosity and provided greater formulation stability.

[11] = 2,4-D Amine 625 g/l, dendrimer 2%
[12] = 2,4-D Amine 625 g/l, dendrimer 5%
[13] = 2,4-D Amine 625 g/l, dendrimer 10%

- Crystallisation After 7 Days at 0° C. With Seeding ([1]; dendrimer 1.4%, Diethylene Glycol 0.6%): Crystallised
- Crystallisation After 7 Days at 0° C. With Seeding ([1]; dendrimer 2%): Crystallised
- Crystallisation After 7 Days at 0° C. With Seeding ([1]; dendrimer 3.5%, Diethylene Glycol 1.5%): Crystallised
- Crystallisation After 7 Days at 0° C. With Seeding ([1]; dendrimer 5%): Crystallised
- Crystallisation at 0° C. without seeding ([1]; 2,4-D Amine 625 g/l, all levels of dendrimer tested): did not result in crystallisation
- Crystallisation After 14 Days at 0° C. ([1]; 2,4-D Amine 625 g/l, dendrimer 1.4%, Diethylene Glycol 0.6%): Crystallised
- Crystallisation After 14 Days at 0° C. [1, 11]: Crystallised
- Crystallisation After 14 Days at 0° C. ([1]; 2,4-D Amine 625 g/l, dendrimer 3.5%, Diethylene Glycol 1.5%): No
- Crystallisation After 14 Days at 0° C. [1, 12]: Crystallised
- Crystallisation After 14 Days at 0° C. ([1]; 2,4-D Amine 625 g/l, dendrimer 7%, Diethylene Glycol 3%): No
- Crystallisation After 14 Days at 0° C. [1, 13]: No
- Crystallisation After 7 Days at 0° C. [1, 11]: No
- Crystallisation After 7 Days at 0° C. [1, 12]: No
- Crystallisation After 7 Days at 0° C. [1, 13]: No
- Quantity LA-3 added to LA-9 solution ([2]; ratio 5% LA-9 solution:dendrimer/DEG solution 70:30 (w/w), 21% dendrimer (w/w)): 2.01 g
- Quantity LA-3 added to LA-9 solution ([2]; ratio 5% LA-9 solution:dendrimer/DEG solution 80:20 (w/w), 14% dendrimer (w/w)): 2.86 g
- Quantity LA-3 added to LA-9 solution ([2]; ratio 5% LA-9 solution:dendrimer/DEG solution 90:10 (w/w), 7% dendrimer (w/w)): 2.11 g
- Increase in solubilisation of Ethoxylated lauryl alcohol-3 M ([2]; over LA-9 without dendrimer): 72%
- Increase in solubilisation of Methylated seed oil in aqueous solution [3]: 110%
- Quantity MSO added to 10% LA-9 solution ([3]; ratio LA-9 solution:dendrimer/DEG solution 60:40 (w/w), 28% dendrimer (w/w)): 0.81 g
- Quantity MSO added to 10% LA-9 solution ([3]; ratio LA-9 solution:dendrimer/DEG solution 80:20 (w/w), 14% dendrimer (w/w)): 0.92 g
- Cloud point (temperature at which solution turned hazy) (Cloud point studies): greater than 80 °C
- Quantity Solvesso 200 added [4]: 2.15 g
- Dynamic viscosity [5]: 0.6 cps
- Suspensibility: Sediment [6]: <0.5 mL⁻¹
- Suspensibility: nature of sediment [6]: Compact
- Suspensibility: Column Thinning ([6]; top thinning): No
- Wetting [7]: 9.9 s
- Viscosity 0 C. ([8]; 0 C.): 744
- Viscosity 54 C. ([8]; 54 C.): 730
- Viscosity RT ([8]; RT): 730 cP
- Observation: sediment at 0 C. ([9]; 0 C.): No sediment at 0 C.,
- Viscosity (cP) 0 C. ([9]; 0 C.): 514 cP
- Observation: sediment at RT ([9]; RT): fluffy, low sediment
- Viscosity (cP) RT ([9]; RT): 672 cP
- Observation: sediment at 0 C. ([10]; 0 C for 7 days): No sediment at 0 C.,
- Viscosity (cP) 0 C. ([10]; 0 C., Brookfield LV viscometer): 552 cP
- Observation: sediment at RT ([10]; RT): fluffy, low sediment at RT
- Viscosity (cP) RT ([10]; RT, Brookfield LV viscometer): 574 cP
Structure (SMILES): OCCN(CCO)CC(O)COCC(COCC(O)CN(CCO)CCO)(COCC(O)CN(CCO)CCO)COCC(COCC(O)CN(CCO)CCO)(COCC(O)CN(CCO)CCO)COCC(O)CN(CCO)CCO (centres unmarked) [Compound 4, 9,9′-(Oxybis(methylene))bis(9-((3-(bis(2-hydroxyethyl)amino)-2-hydroxypropoxy)methyl)-3,15-bis(2-hydroxyethyl)-7,11-dioxa-3,15-diazaheptadecane-1,5,13,17-tetraol)]
- Crystallisation After 7 Days at 0° C. With Seeding ([1]; dendrimer 7%, Diethylene Glycol 3%): remained stable; also recorded: No, Clear
- Crystallisation After 7 Days at 0° C. With Seeding ([1]; dendrimer 10%): remained stable; also recorded: No, Clear
